Data as given in patent US10981892B2, “Acyl sulfonamides that are Bcl family antagonists for use in clinical management of conditions caused or mediated by senescent cells and for treating cancer” (Unity Biotechnology, Inc., priority 2018, dated 2021).
Entries after “also recorded” stand apart in the source; their conditions may differ.

Assays:
[1] = test system: cigarette smoke induced COPD model, 3MR or INK-ATTAC mice; test: Cigarette smoke (CS) induced COPD model, oxygen saturation; type: in vivo, mouse; conditions: after two months of cigarette smoke exposure, compared with untreated controls
Procedure: As a model for chronic obstructive pulmonary disease (COPD), mice were exposed to cigarette smoke. The effect of a senolytic agent on the mice exposed to smoke is assessed by senescent cell clearance, lung function, and histopathology. The mice used in this study include the 3MR strain, described in US 2017/0027139 A1 and in Demaria et al., Dev Cell. 2014 Dec. 22; 31(6): 722-733. […] The enzyme in the transgene is placed under control of the p16 promoter, which causes it to be specifically expressed in senescent cells. Treatment of the mice with GCV eliminates senescent cells. Other mice used in this study include the […] strain, described in US 2015/0296755 A1 and in Baker et al., Nature 2011 Nov. 2; 479(7372):232-236. The […] mouse has a transgene encoding switchable caspase 8 under control of the p16 promoter. The caspase 8 can be activated by treating the mice with the switch compound AP20187, whereupon the caspase 8 directly induces apoptosis in senescent cells, eliminating them from the mouse. To conduct the experiment, six-week-old 3MR (n=35) or […]=35) mice were chronically exposed to cigarette smoke generated from a Teague TE-10 system, an automatically-controlled cigarette smoking machine that produces a combination of side-stream and mainstream cigarette smoke in a chamber, which is transported to a collecting and mixing chamber where varying amounts of air is mixed with the smoke mixture. The COPD protocol was adapted from the COPD core facility at Johns Hopkins University (Rangasamy et al., 2004, J. Clin. Invest. 114:1248-1259; Yao et al., 2012, J. Clin. Invest. 122:2032-2045). Mice received a total of 6 hours of cigarette smoke exposure per day, 5 days a week for 6 months. Each lighted cigarette (3R4F research cigarettes containing 10.9 mg of total particulate matter (TPM), 9.4 mg of tar, and 0.726 mg of nicotine, and 11.9 mg carbon monoxide per cigarette [University of Kentucky, Lexington, Ky.]) was puffed for 2 seconds and once every minute for a total of 8 puffs, with the flow rate of 1.05 L/min, to provide a standard puff of 35 cm3. The smoke machine was adjusted to produce a mixture of side stream smoke (89%) and mainstream smoke (11%) by smoldering 2 cigarettes at one time. The smoke chamber atmosphere was monitored for total suspended particulates (80-120 mg/m3) and carbon monoxide (350 ppm). […] An equal number of mice received the corresponding vehicle. […] After two months of cigarette smoke (CS) exposure, lung function was assessed by monitoring oxygen saturation using the MouseSTAT PhysioSuiteTM pulse oximeter (Kent Scientific). […] Mice were monitored for 30 seconds and the average peripheral capillary oxygen saturation (SpO2) measurement over this duration was calculated.

[2] = background statement; cited from earlier work
[3] = test system: osteoarthritis model, C57BL/6J mice; test: Osteoarthritis model (ACL surgery), intra-articular injection; type: in vivo, mouse
Procedure: This example illustrates the testing of an MDM2 inhibitor in a mouse model for treatment of osteoarthritis. It can be adapted mutatis mutandis to test and develop Bcl inhibitors for use in clinical therapy.
The model was implemented as follows. C57BL/6J mice underwent surgery to cut the anterior cruciate ligament of one rear limb to induce osteoarthritis in the joint of that limb. During week 3 and week 4 post-surgery, the mice were treated with 5.8 μg of Nutlin-3A (n=7) per operated knee by intra-articular injection, q.o.d. for 2 weeks. At the end of 4 weeks post-surgery, joints of the mice were monitored for presence of senescent cells, assessed for function, monitored for markers of inflammation, and underwent histological assessment.
Two control groups of mice were included in the studies performed: one group comprising C57BL/6J or 3MR mice that had undergone a sham surgery (n=3) (i.e., surgical procedures followed except for cutting the ACL) and intra-articular injections of vehicle parallel to the GCV (ganciclovir) treated group; and one group comprising C57BL/6J or 3MR mice that had undergone an ACL surgery and received intra-articular injections of vehicle (n=5) parallel to the GCV-treated group. RNA from the operated joints of mice from the Nutlin-3A treated mice was analyzed for expression of SASP factors (mmp3, IL-6) and senescence markers (p16). qRT-PCR was performed to detect mRNA levels.
Function of the limbs was assessed 4 weeks post-surgery by a weight bearing test to determine which leg the mice favored. The mice were allowed to acclimate to the chamber on at least three occasions prior to taking measurements. Mice were maneuvered inside the chamber to stand with one hind paw on each scale. The weight that was placed on each hind limb was measured over a three second period. At least three separate measurements were made for each animal at each time point. The results were expressed as the percentage of the weight placed on the operated limb versus the contralateral unoperated limb.

[4] = test system: atherosclerosis model, LDLR-/- mice; test: Atherosclerosis model, LDLR-/- mice fed a high fat diet, systemic administration; type: in vivo, mouse
Procedure: This example illustrates the testing of an MDM2 inhibitor in a mouse model for treatment of atherosclerosis. The test compounds are administered systemically rather than locally. The model is done in an LDLR−/− strain of mice, which are deficient in the receptor for low-density lipoprotein. The experiments described here can be adapted mutatis mutandis to test and develop other types of inhibitors for use in clinical therapy.
Two groups of LDLR−/− mice (10 weeks) are fed a high fat diet (HFD) (Harlan Teklad TD.88137) having 42% calories from fat, beginning at Week 0 and throughout the study. Two groups of LDLR−/− mice (10 weeks) are fed normal chow (−HFD). From weeks 0-2, one group of HFD mice and —HFD mice are treated with Nutlin-3A (25 mg/kg, intraperitoneally). One treatment cycle is 14 days treatment, 14 days off. Vehicle is administered to one group of HFD mice and one group of −HFD mice. At week 4 (timepoint 1), one group of mice are sacrificed and to assess presence of senescent cells in the plaques. For the some of the remaining mice, Nutlin-3A and vehicle administration is repeated from weeks 4-6. At week 8 (timepoint 2), the mice are sacrificed and to assess presence of senescent cells in the plaques. The remaining mice are treated with Nutlin-3A or vehicle from weeks 8-10. At week 12 (timepoint 3), the mice are sacrificed and to assess the level of plaque and the number of senescent cells in the plaques.
Plasma lipid levels were measured in LDLR−/− mice fed a HFD and treated with Nutlin-3A or vehicle at timepoint 1 as compared with mice fed a —HFD (n=3 per group). Plasma was collected mid-afternoon and analyzed for circulating lipids and lipoproteins.
At the end of timepoint 1, LDLR−/− mice fed a HFD and treated with Nutlin-3A or vehicle were sacrificed (n=3, all groups), and the aortic arches were dissected for RT-PCR analysis of SASP factors and senescent cell markers. Values were normalized to GAPDH and expressed as fold-change versus age-matched, vehicle-treated LDLR−/− mice on a normal diet.
At the end of timepoint 2, LDLR−/− mice fed a HFD and treated with Nutlin-3A or vehicle (n=3 for all groups) were sacrificed, and aortic arches were dissected for RT-PCR analysis of SASP factors and senescent cell markers. Values were normalized to GAPDH and expressed as fold-change versus age-matched, vehicle-treated LDLR−/− mice on a normal diet.
At the end of timepoint 3, LDLR−/− mice fed a HFD and treated with Nutlin-3A or vehicle (n=3 for all groups) were sacrificed, and aortas were dissected and stained with Sudan IV to detect the presence of lipid. Body composition of the mice was analyzed by MRI, and circulating blood cells were counted by Hemavet™.

SMILES: CC1(C)CCC(c2ccc(Cl)cc2)=C(CN2CCN(c3ccc(C(=O)NS(=O)(=O)c4ccc(N[C@H](CCN5CCOCC5)CSc5ccccc5)c(S(=O)(=O)C(F)(F)F)c4)cc3)CC2)C1 [ABT-263, Navitoclax]
- SpO2 levels [1]: statistically significant increases

SMILES: CN(C)CC[C@H](CSc1ccccc1)Nc1ccc(S(=O)(=O)NC(=O)c2ccc(N3CCN(Cc4ccccc4-c4ccc(Cl)cc4)CC3)cc2)cc1[N+](=O)[O-] [ABT-737]
- dose-limiting toxicity in human patients [2]: dose-limiting thrombocytopenia

SMILES: CC[C@H](C(=O)N1CCCC[C@H]1C(=O)O[C@H](CCc1ccc(OC)c(OC)c1)c1cccc(OCC(=O)NCC(CNC(=O)COc2cccc([C@@H](CCc3ccc(OC)c(OC)c3)OC(=O)[C@@H]3CCCCN3C(=O)[C@@H](CC)c3cc(OC)c(OC)c(OC)c3)c2)CN(C)C)c1)c1cc(OC)c(OC)c(OC)c1 [AP2018]
- SpO2 levels [1]: statistically significant increases

SMILES: COc1ccc(C2=N[C@@H](c3ccc(Cl)cc3)[C@@H](c3ccc(Cl)cc3)N2C(=O)N2CCNC(=O)C2)c(OC(C)C)c1 [Nutlin-3A]
- clearance of senescent cells from the joint ([3]; 5.8 μg per knee intra-articular): cleared senescent cells from the joint
- weight bearing: favoring of unoperated over operated hind limb ([3]; 4 weeks post-surgery): abrogated this effect
- histopathology: destruction of the proteoglycan layer ([3]; joint tissue after ACL surgery): completely abrogated this effect
- expression of p16, IL-6, and MMP13 in the tissue ([3]; operated joint, qRT-PCR, 4 weeks post-surgery, 5.8 μg per knee intra-articular q.o.d. 2 weeks): reduced the expression back to below the level of the controls; also recorded: ameliorated
- SpO2 levels [1]: statistically significant increases
- expression of SASP factors and senescent cell markers in aortic arch, timepoint 2 ([4]; HFD, multiple treatment cycles, 25 mg/kg i.p., RT-PCR): reduced expression of most markers
- expression of SASP factors and senescent cell markers in aortic arch, timepoint 1 ([4]; HFD, one treatment cycle, 25 mg/kg i.p., MMP3, MMP13, PAI1, p21, IGFBP2, IL-1A, IL-1B, RT-PCR): reduced expression of several SASP factors and senescent cell markers
- reduction of surface area covered by plaques in the descending aorta ([4]; HFD, timepoint 3 (week 12), Sudan IV staining): about 45%
- mass and body fat composition ([4]; mice fed the high fat diet, MRI, timepoint 3): decreased
- platelet and lymphocyte counts versus vehicle treated mice ([4]; timepoint 3, Hemavet): equivalent

SMILES: Nc1nc(O)c2ncn(COC(CO)CO)c2n1 [ganciclovir]
- SpO2 levels [1]: statistically significant increases
